Assay results as given in PMC9785812 (Pharmaceutics, 2022).
Values joined by “and” are separate entries in the source; they are usually repeats but may differ in a detail not shown here. Equal values may be shown once.

How the values were obtained:
SSTR2 in CA20948 cells = conditions: cited from earlier work
[1] = Ex vivo biodistribution in healthy BALB/c mice; design: species or system mouse
Procedure: Quantification of activity was performed with an automated gamma counter equipped with a 3-in NaI(Tl) detector coupled to a multichannel analyzer (2480 Wizard^2, Perkin Elmer, Zaventem, Belgium). The results were corrected for background signal, physical decay during counting and detector dead time.
All animal experiments were performed in compliance with the Ethical Committee Animal Studies of Medanex Clinic (EC MxCl 2020-163 and EC MxCl 2021-173), the Belgian laboratory animal legislation and the European Communities Council Directive of 22 September 2010 (2010/63/EU). Male BALB/c and NMRI nude mice were purchased from Janvier (Bio Services, Uden, The Netherlands) and housed in ventilated cages under standard laboratory conditions (12 h light/dark cycle) at the animal facility of SCK CEN. All animals had access to food and water ad libitum.
Additionally, similar biodistribution studies were performed with free (unlabeled) [^153Sm]SmCl3 to identify the organs with ^153Sm accumulation in case of release from the complex. […] The mice were sacrificed by an overdose pentobarbital (200 µL of 60 mg/mL) 1, 4, 24 and 72 h post-injection (p.i.) (n = 3–4 per time point). Blood was collected via cardiac puncture. Organs of interest were collected in tared tubes and weighed. The activity in the different organs was measured in the gamma counter. For the calculation of the total activity in the blood, bone and muscle, the masses were assumed to be, respectively, 7, 12 and 40% of the total body mass. Data were expressed as a percentage of injected activity (%IA) and standardized uptake value (SUV). %IA was calculated as (counts per min (cpm) in organ)/(IA converted to cpm) × 100. SUV was calculated as (activity in cpm in organ/weight of organ in g)/(IA/total body weight in g).

[2] = 1 h p.i., healthy male BALB/c mice, ~2-3 MBq i.v., mean ± SD, n = 3-4
[3] = 4 h p.i., healthy male BALB/c mice, ~2-3 MBq i.v., mean ± SD, n = 3-4
[4] = 24 h p.i., healthy male BALB/c mice, ~2-3 MBq i.v., mean ± SD, n = 3-4
[5] = 72 h p.i., healthy male BALB/c mice, ~2-3 MBq i.v., mean ± SD, n = 3-4
[6] = mouse, in vivo, iv, listed as [153Sm]SmCl3

Structure (SMILES): O=C([O-])CN(CCN(CC(=O)[O-])CC(=O)[O-])CCN(CC(=O)[O-])CC(=O)[O-].[177Lu+3] [[^177Lu]Lu-DTPA]
- affinity towards SSTR2 (SSTR2 in CA20948 cells): complete lack of affinity

Structure (SMILES): [153Sm+3].[Cl-].[Cl-].[Cl-] [[^153Sm]SmCl3, reference compound]
- Blood SUV [1, 2]: 2.0 ± 0.5
- Heart SUV [1, 2]: 0.7 ± 0.2
- Lungs %IA [1, 2]: 0.9 ± 0.2 %IA
- Lungs SUV [1, 2]: 1.0 ± 0.2
- Pancreas SUV [1, 2]: 0.2 ± 0.1
- Stomach %IA [1, 2]: 0.5 ± 0.2 %IA
- Bone %IA [1, 3]: 20.1 ± 6.7 %IA
- Heart %IA [1, 3]: 0.2 ± 0.0 %IA
- Intestines %IA [1, 3]: 1.7 ± 0.2 %IA
- Stomach %IA [1, 3]: 0.2 ± 0.0 %IA
- Blood %IA [1, 4]: 0.2 ± 0.0 %IA
- Heart SUV [1, 4]: 0.2 ± 0.0
- Intestines %IA [1, 4]: 1.0 ± 0.2 %IA
- Lungs SUV [1, 4]: 0.2 ± 0.0
- Stomach %IA [1, 4]: 0.2 ± 0.2 %IA
- Lungs SUV [1, 5]: 0.2 ± 0.0
- Muscle %IA [1, 5]: 0.9 ± 0.2 %IA
- Stomach %IA [1, 5]: 0.2 ± 0.1 %IA
- Bone SUV ([1]; mouse, in vivo, iv): 3.1 ± 1.3
- Brain SUV ([1]; mouse, in vivo, iv): 0.0 ± 0.0
- Liver SUV ([1]; mouse, in vivo, iv): 7.7 ± 1.8
- Lungs SUV ([1]; mouse, in vivo, iv): 0.4 ± 0.0
- Bone %IA [1, 6]: 12.1 ± 0.3 %IA and 17.6 ± 3.7 %IA and 21.9 ± 8.9 %IA
- Bone SUV [1, 6]: 1.7 ± 0.0 and 2.9 ± 1.0 and 2.5 ± 0.5
- Excreted %IA [1, 6]: 26.0 ± 8.0 %IA and 21.4 ± 3.9 %IA and 24.2 ± 4.2 %IA and 34.8 ± 11.6 %IA
- Intestines %IA [1, 6]: 2.4 ± 0.5 %IA and 1.5 ± 0.5 %IA
- Liver %IA [1, 6]: 35.9 ± 6.4 %IA and 54.3 ± 5.3 %IA and 53.9 ± 4.2 %IA and 42.9 ± 9.2 %IA
- Liver SUV [1, 6]: 6.9 ± 0.5 and 11.2 ± 1.3 and 10.5 ± 0.8
